Numbered stars: 1 amine (or outer) side, 2 acyl side, 3 side chain; on linkers, the order of the positions; unused ones are H or OH. Peptide text beside a SMILES is read from it. * marks the point of attachment. CO = O=C([*:1])[*:2]; NHPh = c1ccc(N*)cc1
Assay: In vitro inhibition of RPMI 8866 cell adhesion to human MAdCAM-1 IgG chimera.
Type: cell-based

Compound | IC50 [µM]
CC(C)C[C@H](NC(=O)c1cc2ccccc2o1)C(=O)N[C@@H](CC(=O)O)C(=O)N[C@H](C(=O)NCc1ccc(F)c(F)c1)[C@@H](C)O | 5.2
CC(C)C[C@H](NC(=O)c1coc2ccccc2c1=O)C(=O)N[C@@H](CC(=O)O)C(=O)NC(C(N)=O)C(O)c1ccccc1 (some centres undefined) | 6.4
CC(C)C[C@H](NC(=O)c1coc2ccccc2c1=O)C(=O)N[C@@H](CC(=O)O)C(=O)N[C@H](C(N)=O)[C@@H](C)O | 1.3
CC(C)C[C@H](NC(=O)c1ccc([N+](=O)[O-])cc1)C(=O)N[C@@H](CC(=O)O)C(=O)N[C@H](C(N)=O)[C@@H](C)O | 9
CC(C)C[C@H](NC(=O)c1cc2ccccc2o1)C(=O)N[C@@H](CC(=O)O)C(=O)N[C@H](C(=O)NCc1ccc2c(c1)OCO2)[C@@H](C)O | 4.4
COc1ccc(C(=O)N[C@@H](CC(C)C)C(=O)N[C@@H](CC(=O)O)C(=O)N[C@H](C(N)=O)[C@@H](C)O)cc1 | > 25
CC(C)C[C@H](NS(=O)(=O)c1ccccc1)C(=O)N[C@@H](CC(=O)O)C(=O)N[C@H](C(N)=O)[C@@H](C)O | > 25
CC(=O)N[C@@H](CC(C)C)C(=O)N[C@@H](CC(=O)O)C(=O)N[C@H](C(N)=O)[C@@H](C)O (Ac-Leu-Asp-Thr-NH2) | 250

Continued, values first:

IC50 [µM] | Compound
> 25 | COc1ccc(CCNC(=O)[C@@H](NC(=O)[C@H](CC(=O)O)NC(=O)[C@H](CC(C)C)NC(=O)c2cc3ccccc3cn2)[C@@H](C)O)cc1
3 | COc1ccc(CNC(=O)[C@@H](NC(=O)[C@H](CC(=O)O)NC(=O)[C@H](CC(C)C)NC(=O)c2cc3ccccc3cn2)[C@@H](C)O)cc1
5.2 | CC(C)C[C@H](NC(=O)c1cc2ccccc2cn1)C(=O)N[C@@H](CC(=O)O)C(=O)N[C@H](C(=O)NCc1ccc(F)cc1)[C@@H](C)O
3.9 | CC(C)C[C@H](NC(=O)c1cc2ccccc2cn1)C(=O)N[C@@H](CC(=O)O)C(=O)N[C@@H](C(N)=O)[C@@H](C)O
3.1 | CC(C)C[C@H](NC(=O)c1cc2ccccc2cn1)C(=O)N[C@@H](CC(=O)O)C(=O)N[C@H](C(N)=O)[C@@H](C)O
2.3 | CC(C)C[C@H](NC(=O)c1cc2ccccc2o1)C(=O)N[C@@H](CC(=O)O)C(=O)N[C@H](C(N)=O)[C@@H](C)O
1.1 | CC(C)C[C@H](NC(=O)c1cc2ccccc2cn1)C(=O)N[C@@H](CC(=O)O)C(=O)N[C@H](C(=O)NCc1ccncc1)[C@@H](C)O
4.9 | CC(C)C[C@H](NC(=O)/C=C/c1ccccc1)C(=O)N[C@@H](CC(=O)O)C(=O)N[C@H](C(N)=O)[C@@H](C)O
4.7 | CC(C)C[C@H](NC(=O)c1coc2ccccc2c1=O)C(=O)N[C@@H](CC(=O)O)C(=O)N[C@H](C(N)=O)[C@H](C)O
8.2 | CC(C)C[C@H](NC(=O)c1ccccc1)C(=O)N[C@@H](CC(=O)O)C(=O)N[C@H](C(N)=O)[C@@H](C)O (HELM PEPTIDE1{[O=C(c1ccccc1)[*:2]].L.D.T.[am]}$$$$V2.0)
> 25 | CC(C)C[C@H](NC(=O)Nc1ccccc1)C(=O)N[C@@H](CC(=O)O)C(=O)N[C@H](C(N)=O)[C@@H](C)O ({NHPh-CO}-Leu-Asp-Thr-NH2)

— ChEMBL document CHEMBL1131364, “Novel modified tripeptide inhibitors of alpha 4 beta 7 mediated lymphoid cell adhesion to MAdCAM-1” (Bioorg Med Chem Lett, 1998)
